# Laboratory results as given in patent US20240100190A1, “Brain Disease Therapy Enhancing Inhibition of GABAergic Neurons” (priority 2022, published 2024).
# What was measured:
# [1] = tested on: GABAergic neurons; assay: CNO administration and in vivo recordings in the auditory cortex; design: species or system mice
# Procedure: In vivo recordings are performed in the ACs of mice using the same surgery setup described above.
# For each time point, an average of six evoked responses is used. The inventors average the LFP amplitudes every six trials (MATLAB), which represents a 1-min recording. The representative waveforms are also plotted with MATLAB (MathWorks.Inc, Natick, US; https://ww2.mathworks.cn/). […] The results are exported into Excel for offline analysis and plotting.
# C57BL/6J male mice (6-7 weeks old) are anesthetized with pentobarbital (100 mg/kg) supplemented with atropine (0.05 mg/kg, Sigma). The anesthetized mice are head-fixed using a stereotaxic device (RWD Life Science; Shen Zhen, China; https://www.rwdstco.com/). […] The PHP.eB serotype virus, which readily crosses the BBB for brain transduction, is produced using standard production methods. A glass pipette tip (at an angle of […] to about 45°) is used to slowly touch the surface of the transverse venous sinus with the injection pump running at a slow speed (100 nL/min). After the glass pipette tip penetrates the vessel, the injection speed is increased to 1,000 nL/min. A total of 50 μL of the virus (1.5E12 VGs/kg of body weight, VG, vector genome) is injected.
# To verify the CNO administration can suppress the response to the AS through the potentiation of inhibition, electrophysiological recordings of neuronal firing and LFP response to the AS before and after the CNO application are performed.
# [2] = tested on: GABAergic neurons; assay: Laser pulse induced IPSC recording in cortex; assay type: cell-based, Vgat-Cre mice; conditions: hM3Dq and DIO-ChrimsonR-mCherry injected cortex; laser 0.1 Hz; baseline 100.22±0.66%
# Text: FIG. 4A is a diagram showing the hM3Dq and DIO-ChrimsonR-mCherry injection into the cortex of Vgat-Cre mice.
# [3] = tested on: GABAergic neurons; assay: Current-clamp cortical slice recordings with CNO application; assay type: cell-based, mice; conditions: after CNO, hM3Dq-expressing neurons in cortical slices, 13 neurons
# Procedure: Briefly, anesthetized mice receive transcardial perfusion withN-methyl-D-glucamine (NMDG)-aCSF (92 mM NMDG, 2.5 mM KCl, 1.2 mM NaH2PO4, 30 mM NaHCO3, 20 mM N-2-Hydroxyethylpiperazine-N-2-Ethane Sulfonic Acid (HEPES), 25 mM glucose, 2 mM thiourea, 5 mM Na-ascorbate, 3 mM Na-pyruvate, 0.5 mM CaCl2·4H2O, and 10 mM MgSO4·7H2O; adjusted pH to 7.3-7.4 with concentrated HCl), and the brain is gently and rapidly extracted from the skull and then cut into 300 μm-thick sections with a vibratome (Leica VT1200S). […]
# Brain slices are then bathed in room-temperature recording aCSF (124 mM NaCl, 2.5 mM KCl, 1.2 mM NaH2PO4, 24 mM NaHCO3, 5 mM HEPES, 12.5 mM glucose, 2 mM CaCl2·4H2O and 2 mM MgSO4·7H2O, ˜25° C.) and whole-cell recordings are made at the auditory cortex using Multiclamp 700B amplifier (Molecular Devices, www.moleculardevices.com, Menlo Park, California, USA) and Digital 1440A digitizer (Molecular Devices, www.moleculardevices.com, Menlo Park, California, USA). […] 0.3 mL CNO (0.2 mg/mL) is gently infused into the recording chamber (5-7 mL recording aCSF) and recorded for at least 20 minutes. The firing rate is analyzed with Clampfit 11.2 (Molecular Devices, www.moleculardevices.com, Menlo Park, California, USA). […]
# [4] = Spontaneous locomotion detection (active time); conditions: after CNO administration in two groups
# Procedure: The animals are housed separately under a standard 12-h light/dark cycle and stable temperature (23-25° C.) with full access to food and water.
# A summation of each pixel value for the difference is used to decide whether the animal moves between these three frames. […] Animal movements are analyzed by the program. The active time for each mouse is determined every 24 h.
# The behavioral effects after CNO intervention in the two groups are evaluated.
# [5] = hM3Dq mice, n=30 recording sites
smiles,measurement,setting,value
"C[N+]1([O-])CCN(C2=Nc3cc(Cl)ccc3Nc3ccccc32)CC1 [CNO, clozapine-N-oxide]",duration of activation of the new units after the CNO application,[1]; hM3Dq mice,25 min
same,number of spike-sorted units after the CNO injection,[1]; [5],4.30±0.27
same,number of spike-sorted units before CNO injection,[1]; [5],2.73±0.27
same,maximum firing frequency during the bursts of the new units after CNO application,"[1]; n=44 units, mean",32.63±3.30 Hz
same,normalized IPSCs amplitude 35-40 min after CNO,[2],250.62±6.46%
same,mean highest firing rate in bursts,[3],33.24±2.46 Hz
same,side effects (astrocytic reactivity and locomotion),[4],not detected
